Assay: xn = mol fraction of the nth substance listed
Conditions: for speed of sound: 100 kPa, Pulse-echo method; for speed of sound / viscosity / mass density: Liquid; for viscosity / mass density: 101 kPa; for viscosity: Concentric cylinders viscometry; for mass density: Vibrating tube method; for surface tension liquid-gas: 294.7 K, Drop volume

CC(CC(C)(C)C)CC(C)(C)C [2,2,4,6,6-pentamethylheptane] + CCCCCCCCCCCC
Conditions | mass density [kg/m3] | speed of sound [m/s] | viscosity [mPa·s]
293.15 K, x1 = 0.1 | 748.467 | 1288.5 | 1.45
293.15 K, x1 = 0.2 | 748.123 | 1279.3 | 1.42
293.15 K, x1 = 0.2885 | 747.857 | 1271.4 | 1.4
293.15 K, x1 = 0.3998 | 747.387 | 1261.4 | 1.37
293.15 K, x1 = 0.4999 | 747.034 | 1251.6 | 1.35
293.15 K, x1 = 0.6501 | 746.519 | 1238 | 1.33
293.15 K, x1 = 0.7998 | 745.947 | 1223.2 | 1.31
293.15 K, x1 = 1 | – | 1203.6 | –
303.15 K, x1 = 0.1 | 741.234 | 1250.3 | 1.22
303.15 K, x1 = 0.2 | 740.898 | 1241.1 | 1.2
303.15 K, x1 = 0.2885 | 740.654 | 1233.2 | 1.18
303.15 K, x1 = 0.3998 | 740.15 | 1223.2 | 1.16
303.15 K, x1 = 0.4999 | 739.835 | 1213.4 | 1.15
303.15 K, x1 = 0.6501 | 739.313 | 1199.6 | 1.13
303.15 K, x1 = 0.7998 | 738.715 | 1184.7 | 1.12
303.15 K, x1 = 1 | – | 1164.8 | –
313.15 K, x1 = 0.1 | 733.97 | 1212.5 | 1.03
313.15 K, x1 = 0.2 | 733.64 | 1203.3 | 1.02
313.15 K, x1 = 0.2885 | 733.415 | 1195.5 | 1
313.15 K, x1 = 0.3998 | 732.953 | 1185.4 | 0.988
313.15 K, x1 = 0.4999 | 732.598 | 1175.7 | 0.977
313.15 K, x1 = 0.6501 | 732.066 | 1161.8 | 0.962
313.15 K, x1 = 0.7998 | 731.445 | 1146.8 | 0.952
313.15 K, x1 = 1 | – | 1126.7 | –
323.15 K, x1 = 0.1 | 726.674 | 1175.3 | 0.898
323.15 K, x1 = 0.2 | 726.352 | 1166.2 | 0.885
323.15 K, x1 = 0.2885 | 726.139 | 1158.3 | 0.876
323.15 K, x1 = 0.3998 | 725.68 | 1148.3 | 0.863
323.15 K, x1 = 0.4999 | 725.324 | 1138.5 | 0.856
323.15 K, x1 = 0.6501 | 724.781 | 1124.6 | 0.844
323.15 K, x1 = 0.7998 | 724.136 | 1109.5 | 0.836
323.15 K, x1 = 1 | – | 1089.3 | –
333.15 K, x1 = 0.1 | 719.342 | 1138.7 | 0.784
333.15 K, x1 = 0.2 | 719.024 | 1129.6 | 0.774
333.15 K, x1 = 0.2885 | 718.82 | 1121.7 | 0.766
333.15 K, x1 = 0.3998 | 718.363 | 1111.7 | 0.757
333.15 K, x1 = 0.4999 | 718.004 | 1101.9 | 0.75
333.15 K, x1 = 0.6501 | 717.449 | 1087.9 | 0.741
333.15 K, x1 = 0.7998 | 716.783 | 1072.8 | 0.734
333.15 K, x1 = 1 | – | 1052.5 | –
343.15 K, x1 = 0.1 | 711.9 | – | 0.691
343.15 K, x1 = 0.2 | 711.7 | – | 0.683
343.15 K, x1 = 0.2885 | 711.5 | – | 0.677
343.15 K, x1 = 0.3998 | 710.9 | – | 0.668
343.15 K, x1 = 0.4999 | 710.6 | – | 0.664
343.15 K, x1 = 0.6501 | 710 | – | 0.656
343.15 K, x1 = 0.7998 | 709.4 | – | 0.651
353.15 K, x1 = 0.1 | 704.4 | – | 0.614
353.15 K, x1 = 0.2 | 704.1 | – | 0.607
353.15 K, x1 = 0.2885 | 703.8 | – | 0.603
353.15 K, x1 = 0.3998 | 703.5 | – | 0.595
353.15 K, x1 = 0.4999 | 703 | – | 0.591
353.15 K, x1 = 0.6501 | 702.5 | – | 0.584
353.15 K, x1 = 0.7998 | 701.8 | – | 0.58
363.15 K, x1 = 0.1 | 696.8 | – | 0.551
363.15 K, x1 = 0.2 | 696.5 | – | 0.545
363.15 K, x1 = 0.2885 | 696.3 | – | 0.526
363.15 K, x1 = 0.3998 | 695.8 | – | 0.534
363.15 K, x1 = 0.4999 | 695.4 | – | 0.531
363.15 K, x1 = 0.6501 | 694.8 | – | 0.525
363.15 K, x1 = 0.7998 | 694.1 | – | 0.521
373.15 K, x1 = 0.1 | 689 | – | 0.498
373.15 K, x1 = 0.2 | 688.8 | – | 0.493
373.15 K, x1 = 0.2885 | 688.6 | – | 0.49
373.15 K, x1 = 0.3998 | 688.1 | – | 0.483
373.15 K, x1 = 0.4999 | 687.7 | – | 0.481
373.15 K, x1 = 0.6501 | 687.1 | – | 0.476
373.15 K, x1 = 0.7998 | 686.3 | – | 0.472

Conditions | surface tension liquid-gas [mN/m]
x1 = 0.1 | 24.3
x1 = 0.2 | 24.1
x1 = 0.2885 | 23.7
x1 = 0.3998 | 23.3
x1 = 0.4999 | 23.2
x1 = 0.6501 | 22.7
x1 = 0.7998 | 22.3
x1 = 1 | 21.8

— the NIST ThermoML archive (doi:10.1021/je5000132)
